Measured values published in US5801149A, “Inhibition of signal transduction molecules” (Joslin D-abetes Center, Inc., priority 1995, dated 1998).
Non-standard residues stand in square brackets, D forms with d. Residues, ends and D or L forms follow the SMILES beside them. No end group written: not given here. Pmp = N[C@@H](Cc1ccc(CP(=O)(O)O)cc1)C(=O)O; dPmp = N[C@H](Cc1ccc(CP(=O)(O)O)cc1)C(=O)O; pY = N[C@@H](Cc1ccc(OP(=O)(O)O)cc1)C(=O)O

Legend:
Rat PTPase 1B = biological target: T1, Rat PTPase 1B (Rattus norvegicus, UniProt P20417); test: PTPase 1B peptide dephosphorylation (Km) and inhibition (Ki); format: biochemical; conditions: for Km: apparent Km, phosphotyrosine and pY-peptides as substrates; for Ki: Pmp and Pmp-peptides as inhibitors
T1 construct: cloning the full-length cDNA into the bacterial expression vector, PKK233-2; made in house; host or cells: bacteria (vector PKK233-2)
T1 sequence (P20417 1-432): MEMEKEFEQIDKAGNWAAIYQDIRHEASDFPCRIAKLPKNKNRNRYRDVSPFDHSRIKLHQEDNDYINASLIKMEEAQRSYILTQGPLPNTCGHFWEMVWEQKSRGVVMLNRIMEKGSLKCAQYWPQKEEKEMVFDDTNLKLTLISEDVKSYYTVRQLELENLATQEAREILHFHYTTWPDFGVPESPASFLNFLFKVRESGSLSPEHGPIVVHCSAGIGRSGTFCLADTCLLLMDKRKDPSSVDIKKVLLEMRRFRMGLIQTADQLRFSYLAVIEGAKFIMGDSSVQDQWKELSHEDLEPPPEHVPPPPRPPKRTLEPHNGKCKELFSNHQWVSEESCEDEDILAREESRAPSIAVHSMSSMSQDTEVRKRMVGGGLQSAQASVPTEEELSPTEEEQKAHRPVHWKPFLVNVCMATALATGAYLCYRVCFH
Procedure: The phosphopeptides were used as substrates of PTPase 1B, a single catalytic domain PTPase with a […] tissue distribution (Hunter et al., 1989, cell 58:1013). Rat PTPase 1B (Guan et al., 1990, Proc. Natl., Acad. Sci. USA 87:1501) was obtained by PCR and cloning the full-length cDNA into the bacterial expression vector, PKK233-2.
Sequence specificity for peptide dephosphorylation was observed, with apparent Km values ranging from <2 μM for the phospho-middle t sequence to >2 mM for pTyr itself (Table 3).
Several phosphono peptides were tested for the ability to inhibit PTPase 1B activity and KI values determined by methods known to those skilled in the art.

[1] = biological target: T2, N-terminal p85 SH2/GST fusion protein (Homo sapiens, UniProt P27986); test: biochemical; format: binding
T2 construct: N-terminal p85 SH2/GST fusion proteins (100 nM)
Procedure: Peptide Binding to Isolated Glutathione S-Transferase/SH2 Domain Fusion Proteins was determined as follows. N-terminal p85 SH2/GST fusion proteins (100 nM) (Hu et al., 1992, Mol. Cell. Biol. 12:981-990), 35 fmol of HPLC-purified, [^125 I]Bolton-Hunter-treated phosphopeptide (67 nCi) and varying concentrations of unlabeled peptides were combined in 200 μl total volume of 20 mM tris-HCl, 250 mM NaCl, 0.1% bovine serum albumin, 10 mM dithiothreitol, pH 7.4. Glutathione-agarose (25 μl of a 1:4 aqueous slurry, Molecular Probes) was added and the samples were incubated at 22° C. for 4 h. Following centrifugation for 5 min at 12,000×g, supernatant solutions were removed by aspiration and [^125 I]radioactivity associated with the pellets was determined with a […].
Phosphopeptide and phosphonopeptide binding to p85 SH2 domains. To investigate the mechanism of phosphonopeptide inhibition of association direct binding to an isolated SH2 domain of the p85 of PI 3-kinase was analyzed. In the assay, tracer amounts of [^125 I]-labeled phosphopeptide, SH2 domain/GST fusion protein, and varying concentrations of unlabeled peptides were incubated together along with glutathione-agarose. […] ID50 values were determined as the concentration of unlabeled peptide required to inhibit 50% of specific [^125 I]phosphopeptide binding. […]

[2] = biological target: T3, p85 SH2 domains (SH2/GST fusion protein) (Homo sapiens, UniProt P27986); test: Biospecific interaction analysis of binding to p85 SH2 domains; conditions: isolated SH2 domains of PI 3-kinase p85; overview statement
T3 construct: GST
Procedure: Therefore, mT-pY315 binding to p85 SH2 domains was analyzed using biospecific interaction analysis as previously described to obtain a more accurate estimate for KD. Series of data were obtained during real-time binding experiments with different concentrations of SH2/GST fusion protein (data not shown).

[3] = system: IRS-1/PI 3-kinase association; test: Inhibition of association of PI 3-kinase activity (CHO cell extract) with immobilized phosphorylated IRS-1; format: biochemical; conditions: dose-response studies
Procedure: Inhibiting interactions between IRS-1 and PI 3-kinase IRS-1 produced in a baculovirus expression system was adsorbed to anti-peptide (IRS-1) antibodies and phosphorylated by solubilized insulin receptors (which were then washed away). […] After incubation and additional washing, PI 3-kinase activity associated with the immobilized IRS-1 was determined as described, Auger et al. PI 3-kinase activity associated with IRS-1 only after phosphorylation by the insulin receptor. Various peptides were added during incubation of immobilized IRS-1 with the ChO cell extract (PI 3-kinase) to determine their ability to block association. Concentration dependent effects of phosphorylated vs. unphosphorylated middle T and IRS-1 […] YMXM sequences were determined. […] A detailed study of these effects is a major target of this proposal.

T2 sequence (P27986 333-428 limits assumed): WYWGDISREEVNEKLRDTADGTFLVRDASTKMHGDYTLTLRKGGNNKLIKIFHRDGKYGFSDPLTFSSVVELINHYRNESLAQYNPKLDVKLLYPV
T3 sequence (P27986 333-428 limits assumed): as above

Which Km (Rat PTPase 1B) does the source give for `CC[C@H](C)[C@H](NC(=O)[C@H](CC(=O)O)NC(=O)[C@@H](N)CCCNC(=N)N)C(=O)N[C@@H](Cc1ccc(O)cc1)C(=O)N[C@@H](CCC(=O)O)C(=O)N[C@H](C(=O)N[C@@H](CC(=O)O)C(=O)N[C@@H](Cc1ccc(OP(=O)(O)O)cc1)C(=O)N[C@@H](Cc1ccc(O)cc1)C(=O)N[C@@H](CCCNC(=N)N)C(=O)N[C@@H](CCCCN)C(=O)O)[C@@H](C)O` [IR1155-1165(pY1162), RDIYETDpYYRK] (H-RDIYETD[pY]YRK-OH) here?
Its Km is 40 µM.

With `CSCC[C@H](NC(=O)[C@@H]1CCCN1C(=O)[C@H](CCSC)NC(=O)[C@@H](Cc1ccc(CP(=O)(O)O)cc1)NC(=O)[C@H](CCC(=O)O)NC(=O)[C@H](CCC(=O)O)NC(=O)[C@@H](N)CCC(=O)O)C(=O)N[C@@H](CCC(=O)O)C(=O)N[C@@H](CC(=O)O)C(=O)N[C@@H](CC(C)C)C(=O)N[C@@H](Cc1ccc(O)cc1)C(=O)O` [D-mT-Pmp315] (H-EEE[dPmp]MPMEDLY-OH) as the compound, how does the IC50 [1] read?
The IC50 was 131 µM.

With `CC[C@H](C)[C@H](NC(=O)[C@H](CO)NC(=O)[C@H](CCC(=O)O)NC(=O)[C@H](CC(=O)O)NC(=O)[C@@H](N)CCCCN)C(=O)N[C@@H](CC(=O)O)C(=O)N[C@@H](Cc1ccc(OP(=O)(O)O)cc1)C(=O)N[C@H](C(=O)N1CCC[C@H]1C(=O)N[C@@H](CCSC)C(=O)N[C@@H](CC(C)C)C(=O)N[C@@H](CC(=O)O)C(=O)N[C@@H](CCSC)C(=O)N[C@@H](CCCCN)C(=O)NCC(=O)N[C@@H](CC(=O)O)C(=O)O)C(C)C` [mPDGF-Rβ(pY719), KDESIDpYVPMLDMKGD] (H-KDESID[pY]VPMLDMKGD-OH) as the compound, how does the Km (Rat PTPase 1B) read?
The Km was 8 µM.

For “RDIPmpETDPmpPmpRK [IR1155-1165(D,L-Pmp3)]”, which Ki (Rat PTPase 1B) is on record?
The Ki was < 2 µM.

Which Km (Rat PTPase 1B) does the source give for `CC[C@H](C)[C@H](NC(=O)[C@H](CC(=O)O)NC(=O)[C@@H](N)CCCNC(=N)N)C(=O)N[C@@H](Cc1ccc(O)cc1)C(=O)N[C@@H](CCC(=O)O)C(=O)N[C@H](C(=O)N[C@@H](CC(=O)O)C(=O)N[C@@H](Cc1ccc(O)cc1)C(=O)N[C@@H](Cc1ccc(OP(=O)(O)O)cc1)C(=O)N[C@@H](CCCNC(=N)N)C(=O)N[C@@H](CCCCN)C(=O)O)[C@@H](C)O` [IR1155-1165(pY1163), RDIYETDYpYRK] (H-RDIYETDY[pY]RK-OH) here?
Its Km is 30 µM.

For `CSCC[C@H](NC(=O)[C@@H]1CCCN1C(=O)[C@H](CCSC)NC(=O)[C@H](Cc1ccc(OP(=O)(O)O)cc1)NC(=O)[C@H](CC(=O)O)NC(=O)CNC(=O)[C@H](CC(N)=O)NC(=O)CN)C(=O)N[C@@H](CO)C(=O)N1CCC[C@H]1C(=O)N[C@@H](CCCCN)C(=O)N[C@@H](CO)C(=O)O` [IRS-1(pY628), GNGDpYMPMSPKS] (H-GNGD[pY]MPMSPKS-OH), which Km (Rat PTPase 1B) is on record?
Its Km is 100 µM.

For `CSCC[C@H](NC(=O)[C@@H]1CCCN1C(=O)[C@H](CCSC)NC(=O)[C@H](Cc1ccc(CP(=O)(O)O)cc1)NC(=O)[C@H](CCC(=O)O)NC(=O)[C@H](CCC(=O)O)NC(=O)[C@@H](N)CCC(=O)O)C(=O)N[C@@H](CCC(=O)O)C(=O)N[C@@H](CC(=O)O)C(=O)N[C@@H](CC(C)C)C(=O)N[C@@H](Cc1ccc(O)cc1)C(=O)O` [L-mT-Pmp315] (H-EEE[Pmp]MPMEDLY-OH), which IC50 [1] is on record?
The IC50 was 7.2 µM.

What about the Kd [2] of the same compound?
The Kd was 0.01 to 0.02 µM.

With `CC[C@H](C)[C@H](NC(=O)[C@H](CC(=O)O)NC(=O)[C@@H](N)CCCNC(=N)N)C(=O)N[C@@H](Cc1ccc(CP(=O)(O)O)cc1)C(=O)N[C@@H](CCC(=O)O)C(=O)N[C@H](C(=O)N[C@@H](CC(=O)O)C(=O)N[C@@H](Cc1ccc(O)cc1)C(=O)N[C@@H](Cc1ccc(O)cc1)C(=O)N[C@@H](CCCNC(=N)N)C(=O)N[C@@H](CCCCN)C(=O)O)[C@@H](C)O` [IR1155-1165(L-Pmp1158), RDI[L-Pmp]ETDYYRK] (H-RDI[Pmp]ETDYYRK-OH; N-terminus assumed) as the compound, how does the Ki (Rat PTPase 1B) read?
Its Ki is 30 µM.

With `CC[C@H](C)[C@H](NC(=O)[C@H](CC(=O)O)NC(=O)[C@@H](N)CCCNC(=N)N)C(=O)N[C@@H](Cc1ccc(OP(=O)(O)O)cc1)C(=O)N[C@@H](CCC(=O)O)C(=O)N[C@H](C(=O)N[C@@H](CC(=O)O)C(=O)N[C@@H](Cc1ccc(O)cc1)C(=O)N[C@@H](Cc1ccc(O)cc1)C(=O)N[C@@H](CCCNC(=N)N)C(=O)N[C@@H](CCCCN)C(=O)O)[C@@H](C)O` [1R1155-1165(pY1158), RDIpYETDYYRK] (H-RDI[pY]ETDYYRK-OH) as the compound, how does the Km (Rat PTPase 1B) read?
The Km was 30 µM.

How did the Ki (Rat PTPase 1B) turn out when `CC[C@H](C)[C@H](NC(=O)[C@H](CC(=O)O)NC(=O)[C@@H](N)CCCNC(=N)N)C(=O)N[C@H](Cc1ccc(CP(=O)(O)O)cc1)C(=O)N[C@@H](CCC(=O)O)C(=O)N[C@H](C(=O)N[C@@H](CC(=O)O)C(=O)N[C@@H](Cc1ccc(O)cc1)C(=O)N[C@@H](Cc1ccc(O)cc1)C(=O)N[C@@H](CCCNC(=N)N)C(=O)N[C@@H](CCCCN)C(=O)O)[C@@H](C)O` [IR1155-1165(d-Pmp1158), RDI[D-Pmp]ETDYYRK] (H-RDI[dPmp]ETDYYRK-OH; N-terminus assumed) was run?
Its Ki is 30 µM.

With `C[C@@H](O)[C@H](N)C(=O)N[C@@H](CCC(=O)O)C(=O)N1CCC[C@H]1C(=O)N[C@@H](CCC(=O)O)C(=O)N[C@@H](Cc1ccc(OP(=O)(O)O)cc1)C(=O)N[C@@H](CCC(N)=O)C(=O)N1CCC[C@H]1C(=O)NCC(=O)N[C@@H](CCC(=O)O)C(=O)O` [pp60^c-src (pYS27), TEPEpYQPGE] (H-TEPE[pY]QPGE-OH) as the compound, how does the Km (Rat PTPase 1B) read?
Its Km is 8 µM.

Which Km (Rat PTPase 1B) does the source give for `CC[C@H](C)[C@H](NC(=O)[C@H](CCC(N)=O)NC(=O)[C@@H]1CCCN1C(=O)[C@H](C)NC(=O)[C@H](CCSC)NC(=O)[C@@H]1CCCN1C(=O)[C@H](CCSC)NC(=O)[C@H](Cc1ccc(OP(=O)(O)O)cc1)NC(=O)[C@H](CCC(=O)O)NC(=O)[C@H](CC(N)=O)NC(=O)[C@H](CCC(=O)O)NC(=O)[C@@H](N)CCCNC(=N)N)C(=O)N[C@@H](Cc1c[nH]cn1)C(=O)O` [middle t(pY298), RENEpYMPMAPQIH] (H-RENE[pY]MPMAPQIH-OH) here?
The Km was < 2 µM.

`CSCC[C@H](NC(=O)[C@@H]1CCCN1C(=O)[C@H](CCSC)NC(=O)[C@H](Cc1ccc(OP(=O)(O)O)cc1)NC(=O)CNC(=O)[C@H](CC(=O)O)NC(=O)[C@H](CC(=O)O)NC(=O)[C@@H](N)[C@@H](C)O)C(=O)N[C@@H](CO)C(=O)N1CCC[C@H]1C(=O)NCC(=O)N[C@H](C(=O)O)C(C)C` [IRS-1(pY608), TDDGpYMPMSPGV] (H-TDDG[pY]MPMSPGV-OH) was tested. Which Km (Rat PTPase 1B) did it give?
Its Km is 30 µM.

For “pY628: phosphorylated form of IRS-1 YMXM sequence Y628 (SEQ ID NO: 26, Table 1) (RKGNGDG[pY]MPMSPKSV)”, which “ED50 for inhibition of IRS-1/PI 3-kinase association” value [3] is on record?
Its value is ≤ 0.05 µM.
